What was measured:
[1] = from C6H6 to MeOH; cited from earlier work
[2] = Methylene Blue-sensitized photobleaching (reactivity of the dyes with singlet oxygen); format: physicochemical; details: methanol, [dye]=[Methylene Blue]=3.33 μM, filtered light λ>630 nm, 40 min
Protocol: The reactivity of the dyes with singlet oxygen also was examined to confirm that the cyano substituent group affected photobleaching mediated by singlet oxygen. Singlet oxygen was generated using the photosensitizer Methylene Blue (MB), which has a high quantum yield for singlet oxygen production and allows singlet oxygen to be introduced into the system without excitation of the merocyanine dye. See Murov and Carmichael, Handbook of Photochemistry, 2nd ed.; Dekker: New York (1993).
15 mL of a methanol solution containing dye (3.33 μM) and Methylene Blue (3.33 μM) were placed in a 20-mL Borosilicate Glass Scintillation Vial (Fisher Scientific). The vial was illuminated with the light of a 90 W halogen reflector lamp (120 V, 1280 Lumens, 12 Degree Beam Spread). […] The length of the filtering solution was 1.0 cm. The distance between the vial and the lamp was 11.0 cm. A fan (120 V, 150 mm)) was used to cool the vial. At selected time intervals a sample was removed and the sample absorbance spectrum was obtained on a Hewlett-Packard 8453 diode array spectrophotometer (Agilent, Technologies, Inc.). Rate constants of dye photobleaching were obtained from a plot of ln(A) vs. time (see Table 5).
Again, without wishing to be bound to any one particular theory, the greater reactivity of S-SO vs. I-SO toward singlet oxygen can be attributed to the greater electron donating capacity of the benzothiazole moiety relative to the indolenine ring system.

[3] = Absorption and fluorescence spectra, extinction coefficient, fluorescence quantum yield; format: physicochemical; details: for Suppression of extinction coefficient by introduction of the cyano-group: in methanol
Protocol: Absorption spectra were recorded on a Hewlett-Packard 8453 diode array UV-Vis spectrophotometer (Agilent Technologies, Inc., Santa Clara, Calif.), and fluorescence measurements were taken on a SPEX® Fluorolog 2 spectrofluorometer (HORIBA Jobin Yvon, Inc., Edison, N.J.). Melting points are not corrected. NMR spectra were obtained on a Varian Mercury 300 MHz (Varian, Inc., Palo Alto, Calif.) or on a Bruker 300 MHz DRX 300 spectrometer (Bruker Biospin Corp., Billerica, Mass.). Mass spectra were obtained on a Hewlett-Packard 1100 high-performance liquid chromatograph equipped with an 1100 mass selective detector (MS-ESI) (Agilent Technologies, Inc.).
With decreasing solvent polarity, the absorption maximum of dyes 1a-b, 2a-d shifted to longer wavelengths, and the intensity of the transition increased (Table 10, FIG. 11).
The SCRF/VSCRF predicted emission energies and the solute dipole moments before and after the vertical emission process are given in Table 16. The dipole moments of AI-BA(4) and AI-SO(4) are further decreased on the S1 surface after geometry relaxation (in MeOH solution), and then increased during the S1→S0 transition. This observation is consistent with the blue shifts of the emission bands of AI-BA(4) and AI-SO(4) with increasing solvent polarity from C6H6 to MeOH. By contrast, the dipole moment of I-SO further decreases after S1 state geometry relaxation, and then decreases during the vertical emission process. This observation also is in agreement with the red shift of the I-SO emission band with increasing solvent polarity from C6H6 to MeOH. Similarly to the absorption case, a negligible red shift (ΔEem=0.017 eV) was predicted for the emission band of I-TBA with increasing solvent polarity. A small red shift from C6H6 to DMF (with ΔEem=0.020 eV, or Δλmax=6 nm) is observed. The nearly equal emission energy observed in C6H6 and MeOH can again result in the explicit interactions between the solute and solvent molecules.

[4] = Relative rate of reaction with chemically generated singlet oxygen in DMSO; format: physicochemical; details: 2.5 mM, 1O2 from 1,4-dimethylnaphtalene-1,4-endoperoxide
Protocol: The bleaching rates for the dyes differed by two orders of magnitude. The relative rate constants kr (rel) for product formation during reaction with singlet oxygen were measured by comparing the percent conversions for dyes dissolved in DMSO containing a fixed amount of ^1O2 (2.5 mM solutions; ^1O2 generated by decomposition of 1,4-dimethylnaphtalene-1,4-endoperoxide). The rates were generally higher for dyes with a polar ground state (1a, 2a, 2b, 2d) than for the dyes with their ground state at the “cyanine limit” (3, 4). […] Olefins without allylic hydrogens react with singlet oxygen to form dioxetanes. Dioxetanes are unstable and decompose, to form two carbonyl compounds.

[5] = Photobleaching under constant illumination from a halogen tungsten lamp filtered through glass; format: physicochemical
From the text: The photostability of dyes can be important for applications in living cells. The mechanism of photobleaching for merocyanines of varying structure has been examined See Toutchkine et al., J. Am. Chem. Soc. 125:4132-4145 (2003). The photostability of the presently disclosed dyes was characterized by exposing them to constant illumination from a halogen tungsten lamp filtered through glass. This broad spectrum light source provided essentially equal intensity throughout the spectral range where the dyes absorb and where they would be irradiated in vivo (about 600 nm to about 650 nm).

[6] = MeOH, with respect to standard I-TBA in MeOH

## CCN1C(=O)\C(=C/C=C/C=C2\Sc3ccccc3N2CC)C(O)N(CC)C1=S (stereo not drawn) [S-TBA]
[1]
  Absorption wavelength shift: 17 nm
  Emission wavelength shift: 11 nm

## CN1/C(=C(C#N)/C=C/C=C2/C(=O)c3ccccc3S2(=O)=O)C(C)(C)c2ccccc21 [I-SO-CN, (2Z,3E,5Z)-5-(1,1-dioxido-3-oxo-1-benzothiophen-2(3H)-ylidene)-2-(1,3,3-trimethyl-1,3-dihydro-2H-indol-2-ylidene)pent-3-enenitrile]
[2]
  Bleaching on irradiation of Methylene Blue: 0%
[3]; Butanol (BuOH)
  Absorbance λmax: 527 nm
  Emission λmax: 594 nm
  Extinction coefficient ε: 56000
  Fluorescence quantum yield Φ: 0.04
[3]; Methanol (MeOH)
  Absorbance λmax: 528 nm
  Emission λmax: 595 nm
  Extinction coefficient ε: 55000
  Fluorescence quantum yield Φ: 0.03

## CN1/C(=C/C=C/C=C2/C(=O)c3ccccc3S2(=O)=O)C(C)(C)c2ccccc21 [I-SO, (2Z)-2-[(2E,4E)-4-(1,3,3-trimethyl-1,3-dihydro-2H-indol-2-ylidene)but-2-en-1-ylidene]-1-benzothiophen-3(2H)-one 1,1-dioxide, reference compound]
[2]
  Bleaching on irradiation of Methylene Blue: 27%
[4]
  kr(rel) (relative rate constants for product formation during reaction with singlet oxygen produced chemically): 5.24
[3]; Butanol (BuOH)
  Absorbance λmax: 587 nm
  Emission λmax: 618 nm
  Extinction coefficient ε: 134000
  Fluorescence quantum yield Φ: 0.2
[3]; C6H6
  Absorption energy Eabs Exp: 2.172 eV
  Emission energy Eem Exp: 2.056 eV
[3]; MeOH
  Absorption energy Eabs Exp: 2.116 eV
  Emission energy Eem Exp: 2.016 eV
[3]; Methanol (MeOH)
  Absorbance λmax: 586 nm
  Emission λmax: 615 nm
  Extinction coefficient ε: 143000
  Fluorescence quantum yield Φ: 0.03
[3]; Table 10, BuOH
  Observed absorption (ε): (134000)
  Observed absorption λmax: 587 nm
[3]; Table 10, C6H6
  Observed absorption (ε): (109000)
  Observed absorption λmax: 571 nm
[3]; Table 10, DMF
  Observed absorption (ε): (143000)
  Observed absorption λmax: 586 nm
[3]; Table 10, MeOH
  Observed absorption (ε): (143000)
  Observed absorption λmax: 586 nm
[3]; Table 10, OcOH
  Observed absorption (ε): (125000)
  Observed absorption λmax: 587 nm
[3]; Table 12, C6H6
  Absorption Exp wavelength: 571 nm
[3]; Table 12, MeOH
  Absorption Exp wavelength: 586 nm
[3]; Table 15, BuOH
  Observed emission (Φ): 0.54
  Observed emission λmax: 618 nm
[3]; Table 15, C6H6
  Observed emission (Φ): 0.42
  Observed emission λmax: 603 nm
[3]; Table 15, DMF
  Observed emission (Φ): 0.97
  Observed emission λmax: 615 nm
[3]; Table 15, MeOH
  Observed emission (Φ): 0.08
  Observed emission λmax: 615 nm
[3]; Table 15, OcOH
  Observed emission (Φ): 0.98
  Observed emission λmax: 617 nm
[3]
  Suppression of extinction coefficient by introduction of the cyano-group: 62%
[1]
  Absorption wavelength shift: 15 nm
  Emission wavelength shift: 12 nm
[5]; C6H6
  kph * 10^6 (absolute rate of photobleaching): 1.11 s^−1
[5]; C6H6, with respect to standard I-SO in C6H6
  kph(rel) (relative rate of photobleaching): 1.00
[5]; MeOH
  kph * 10^6 (absolute rate of photobleaching): 0.53 s^−1
[5]; [6]
  kph(rel) (relative rate of photobleaching): 1.56

## Cn1c([O-])c(/C=C/C=C/c2cc[n+]3c(c2)C(C)(C)c2ccccc2-3)c(=O)n(C)c1=O [AI-BA]
[4]
  kr(rel) (relative rate constants for product formation during reaction with singlet oxygen produced chemically): 25.6
[3]; C6H6
  Absorption energy Eabs Exp: 1.873 eV
  Emission energy Eem Exp: 1.851 eV
[3]; MeOH
  Absorption energy Eabs Exp: 2.120 eV
  Emission energy Eem Exp: 2.006 eV
[3]; Table 10, BuOH
  Observed absorption (ε): (154000)
  Observed absorption λmax: 615 nm
[3]; Table 10, C6H6
  Observed absorption (ε): ±201000)
  Observed absorption λmax: 662 nm
[3]; Table 10, CH2Cl2
  Observed absorption (ε): (224000)
  Observed absorption λmax: 647 nm
[3]; Table 10, CH3CN
  Observed absorption (ε): (141000)
  Observed absorption λmax: 621 nm
[3]; Table 10, DMF
  Observed absorption (ε): (146000)
  Observed absorption λmax: 625 nm
[3]; Table 10, DMSO
  Observed absorption (ε): (122000)
  Observed absorption λmax: 617 nm
[3]; Table 10, EtOH
  Observed absorption (ε): (104000)
  Observed absorption λmax: 604 nm
[3]; Table 10, MeOH
  Observed absorption (ε): (83000)
  Observed absorption λmax: 585 nm
[3]; Table 10, OcOH
  Observed absorption (ε): (143000)
  Observed absorption λmax: 628 nm
[3]; Table 10, i-PrOH
  Observed absorption (ε): (132000)
  Observed absorption λmax: 614 nm
[3]; Table 12, C6H6
  Absorption Exp wavelength: 662 nm
[3]; Table 12, MeOH
  Absorption Exp wavelength: 585 nm
[3]; Table 15, BuOH
  Observed emission (Φ): 0.29
  Observed emission λmax: 654 nm
[3]; Table 15, C6H6
  Observed emission (Φ): 0.01
  Observed emission λmax: 670 nm
[3]; Table 15, CH2Cl2
  Observed emission (Φ): 0.03
  Observed emission λmax: 664 nm
[3]; Table 15, CH3CN
  Observed emission (Φ): 0.05
  Observed emission λmax: 652 nm
[3]; Table 15, DMF
  Observed emission (Φ): 0.26
  Observed emission λmax: 658 nm
[3]; Table 15, DMSO
  Observed emission (Φ): 0.23
  Observed emission λmax: 657 nm
[3]; Table 15, EtOH
  Observed emission (Φ): 0.19
  Observed emission λmax: 651 nm
[3]; Table 15, MeOH
  Observed emission (Φ): 0.52
  Observed emission λmax: 618 nm
[3]; Table 15, OcOH
  Observed emission (Φ): 0.64
  Observed emission λmax: 656 nm
[3]; Table 15, i-PrOH
  Observed emission (Φ): 0.22
  Observed emission λmax: 652 nm
[3]; blue shift of absorption band C6H6 to MeOH
  Eabs(MeOH)-Eabs(C6H6) Exp: 0.247 eV
[5]; MeOH
  kph * 10^6 (absolute rate of photobleaching): 68 s^−1
[5]; [6]
  kph(rel) (relative rate of photobleaching): 200

## CCN1/C(=C/C=C/C=C2/C(=O)c3ccccc3S2(=O)=O)Sc2ccccc21 [S-SO, (2Z)-2-[(2E,4Z)-4-(3-ethyl-1,3-benzothiazol-2(3H)-ylidene)but-2-en-1-ylidene]-1-benzothiophen-3(2H)-one 1,1-dioxide, reference compound]
[2]
  Bleaching on irradiation of Methylene Blue: 43%
[3]; Butanol (BuOH)
  Absorbance λmax: 604 nm
  Emission λmax: 622 nm
  Extinction coefficient ε: 163000
  Fluorescence quantum yield Φ: 0.12
[3]; Methanol (MeOH)
  Absorbance λmax: 598 nm
  Emission λmax: 617 nm
  Extinction coefficient ε: 143000
  Fluorescence quantum yield Φ: 0.05
[3]
  Suppression of extinction coefficient by introduction of the cyano-group: 34%

## CCN1/C(=C(C#N)/C=C/C=C2/C(=O)c3ccccc3S2(=O)=O)Sc2ccccc21 [S-SO-CN, (2E,3E,5Z)-5-(1,1-dioxido-3-oxo-1-benzothien-2(3H)-ylidene)-2-(3-ethyl-1,3-benzothiazol-2(3H)-ylidene)pent-3-enenitrile]
[2]
  Bleaching on irradiation of Methylene Blue: no bleaching
[3]; Butanol (BuOH)
  Absorbance λmax: 550 nm
  Emission λmax: 599 nm
  Extinction coefficient ε: 91000
  Fluorescence quantum yield Φ: 0.16
[3]; Methanol (MeOH)
  Absorbance λmax: 547 nm
  Emission λmax: 597 nm
  Extinction coefficient ε: 95000
  Fluorescence quantum yield Φ: 0.05

From US8835632B2, “Methods to increase the photostability of dyes” (The University of North Carolina at Chapel Hill, priority 2007, dated 2014)
